Test system: tumor cells A549
Experiment: MTS proliferation test of tumor cells A549
Assay type: cell-based
Details: A549, 0-3.2 μM, 1.5 h exposure, then 48 h culture
Description: Plating the cultured tumor cells A549 in 96-well cell culture plates (100 μL, 5×10^4 cell/well), adding pure Adriamycin or samples with predetermined concentrations (0, 0.1 μM, 0.2 μM, 0.4 μM, 0.8 μM, 1.6 μM, 3.2 μM) into the wells respectively, culturing in a cell incubator for 1.5 h, centrifuging, removing the cell culture medium in the supernatant, adding fresh culture medium to continue culturing for 48 h, then testing the proliferation rate of the cells using a MTS reagent.

COc1cccc2c1C(=O)c1c(O)c3c(c(O)c1C2=O)C[C@@](O)(C(=O)CO)C[C@@H]3O[C@H]1C[C@H](N)[C@H](O)[C@H](C)O1 [Adriamycin]
inhibitory effect against tumor cells as the concentration increases (proliferation rate, MTS): increases gradually
